Converted amounts (≈) assume the structure as drawn. Where two headings read alike, the source gives them in different places.
Columns and labels:
HIV-1 strain IIIB = experiment: Inhibition of replication of HIV-1 (IIIB strain) in MT-4 cells, MTT assay; format: cell-based; settings: read-out: EC50 (μM) HIV-1 (IIIB)
HIV-2 strain (ROD) = experiment: Inhibition of replication of HIV-2 (ROD strain) in MT-4 cells, MTT assay; format: cell-based; settings: Human immunodeficiency virus 2, MT4, 120 h, read-out: EC50 (μM) HIV-2 (ROD)
poliovirus (PV type 1) = experiment: microbe, parasite or virus in culture; format: cell-based; settings: Enterovirus C, read-out: PV-1 EC50
poliovirus (PV type 2) = experiment: microbe, parasite or virus in culture; format: cell-based; settings: Enterovirus C, read-out: PV-2 EC50
poliovirus (PV type 3) = experiment: microbe, parasite or virus in culture; format: cell-based; settings: Enterovirus C, read-out: PV-3 EC50
Vero cells = settings: African green monkey
Hela H cells = settings: human
in vitro [1] = settings: human
in vitro [2] = settings: African green monkey, PV CC50
in vitro [3] = settings: human, PV CC50
[4] = system: genotype 1a H-77 replicon; experiment: HCV-1a replicon potency in RLuc-1 cells, bioluminescence; format: cell-based
RLuc-1 cells = experiment: Cytotoxicity in HCV-1a replicon cells, Promega CellTiter-Glo cell viability assay; settings: read-out: HCV-1a Replicon CC50; replicon cells, 72 hours, CellTiter-Glo
hRV-2 = experiment: Rhinovirus type 2 antiviral assay in Hela Rh cells, MTS readout; format: cell-based, Human rhinovirus; settings: Hela Rh cells
hRV-9 = experiment: Rhinovirus type 9 antiviral assay in Hela Rh cells, MTS readout; format: cell-based, Human rhinovirus; settings: Hela Rh cells
hRV-14 = experiment: Rhinovirus type 14 antiviral assay in Hela Rh cells, MTS readout; format: cell-based, Human rhinovirus; settings: Hela Rh cells
hRV-15 = experiment: Rhinovirus type 15 antiviral assay in Hela Rh cells, MTS readout; format: cell-based, Human rhinovirus; settings: Hela Rh cells
hRV-39 = experiment: Rhinovirus type 39 antiviral assay in Hela Rh cells, MTS readout; format: cell-based, Human rhinovirus; settings: Hela Rh cells
hRV-41 = experiment: Rhinovirus type 41 antiviral assay in Hela Rh cells, MTS readout; format: cell-based, Human rhinovirus; settings: Hela Rh cells
hRV-42 = experiment: Rhinovirus type 42 antiviral assay in Hela Rh cells, MTS readout; format: cell-based, Human rhinovirus; settings: Hela Rh cells
hRV-45 = experiment: Rhinovirus type 45 antiviral assay in Hela Rh cells, MTS readout; format: cell-based, Human rhinovirus; settings: Hela Rh cells
hRV-63 = experiment: Rhinovirus type 63 antiviral assay in Hela Rh cells, MTS readout; format: cell-based, Human rhinovirus; settings: Hela Rh cells
hRV-70 = experiment: Rhinovirus type 70 antiviral assay in Hela Rh cells, MTS readout; format: cell-based, Human rhinovirus; settings: Hela Rh cells
hRV-72 = experiment: Rhinovirus type 72 antiviral assay in Hela Rh cells, MTS readout; format: cell-based, Human rhinovirus; settings: Hela Rh cells
hRV-85 = experiment: Rhinovirus type 85 antiviral assay in Hela Rh cells, MTS readout; format: cell-based, Human rhinovirus; settings: Hela Rh cells
hRV-86 = experiment: Rhinovirus type 86 antiviral assay in Hela Rh cells, MTS readout; format: cell-based, Human rhinovirus; settings: Hela Rh cells
Hela Rh cells = experiment: Cytostatic/cytotoxic effect in Hela Rh cells (rhinovirus methodology, MTS)
[5] = target: purine nucleoside phosphorylase (Homo sapiens, UniProt P00491); settings: J. C. Sircar et al. J. Med. Chem. 1986, 29, 1804-1806; cited from earlier work
Sequence of purine nucleoside phosphorylase (P00491 whole entry, species assumed): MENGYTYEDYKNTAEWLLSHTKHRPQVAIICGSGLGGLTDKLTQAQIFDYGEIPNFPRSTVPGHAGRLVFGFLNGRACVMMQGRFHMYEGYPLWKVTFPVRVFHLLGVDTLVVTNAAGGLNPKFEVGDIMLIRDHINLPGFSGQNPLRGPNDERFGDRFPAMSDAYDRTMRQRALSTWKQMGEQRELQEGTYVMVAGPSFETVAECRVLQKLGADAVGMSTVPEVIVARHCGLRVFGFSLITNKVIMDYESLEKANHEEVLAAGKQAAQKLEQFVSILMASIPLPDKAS

genotype 1b replicon = experiment: HCV genotype 1b replicon potency in R-luc cells, bioluminescence; format: cell-based; settings: 72 hours, average of two or more independent experiments ± std. dev, read-out: Stable replicon cell lines EC50 (μM) Genotype1b (R-luc)
[6] = system: genotype 1a H-77 replicon; experiment: HCV genotype 1a replicon potency in GLuc-1 cells, bioluminescence; format: cell-based; settings: 72 hours, average of two or more independent experiments ± std. dev, read-out: Stable replicon cell lines EC50 (μM) Genotype 1a (Gluc-1)
[7] = system: infectious genotype 2a virus (a J6/JFH-1 chimera); experiment: JFH-1 HCV-2a virus assay in Lunet-CD81 cells, NS3 expression readout; format: cell-based
[8] = Cytotoxicity in G-luc replicon cells, Promega CellTiter-Glo cell viability assay; settings: G-luc (GLuc-1) HCV genotype 1a H-77 replicon cells
[9] = Cytotoxicity in HCV-1a replicon cells, Promega CellTiter-Glo cell viability assay
[10] = MT-4 cells, MTT assay, five days after infection, 50% protection from cytopathic effect
[11] = RLuc-1 cells, 72 hours, bioluminescence, read-out: HCV-1a Replicon EC50

Q: What does the source list for `O=C(COc1ccc(Cl)cc1)N1CCN(c2ncnc3oc(-c4ccc(F)cc4)nc23)CC1` [Example 167, 2-(4-chlorophenoxy)-1-(4-(2-(4-fluorophenyl)oxazolo[5,4-d]pyrimidin-7-yl)piperazin-1-yl)ethanone]?
A: EC50 (HIV-1 strain IIIB; Human immunodeficiency virus 1, IIIB, MT4, 120 h, MT-4 cells, MTT assay, five days after infection, 50% protection from cytopathic effect): > 50 µM; EC50 (HIV-2 strain (ROD); [10]): > 50 µM; EC50 (poliovirus (PV type 1); HeLa): > 50 µg/mL; EC50 (poliovirus (PV type 1); Vero): > 50 µg/mL; EC50 (poliovirus (PV type 2); HeLa): ≥ 50 µg/mL; EC50 (poliovirus (PV type 3); HeLa): > 50 µg/mL; EC50 (poliovirus (PV type 3); Vero): > 50 µg/mL; PV CC50 (Vero cells): 105.69 µg/mL; PV CC50 (Hela H cells): 31.91 µg/mL; CC50 (in vitro [1]): > 50 µM; CC50 (in vitro [2]): > 150 µg/mL; CC50 (in vitro [3]): > 50 µg/mL

Q: With `Nc1nc(NCc2ccccc2)c2cc(-c3ccc(F)cc3)sc2n1` [Example 327, 2-amino-4-N-benzylamino-6-(4-fluorophenyl)-thieno[2,3-d]pyrimidine] as the compound, how does the EC50 [4, 11] read?
A: 38.6 µM

Q: What about the CC50 (RLuc-1 cells) of the same compound?
A: 23.2 µM

Q: Which “hRV-2 EC50” value (hRV-2) does the source give for `Nc1nc(N2CCN(C(=O)COc3ccc(Br)cc3)CC2)c2sc(Cc3ccc(F)cc3)nc2n1` [Example 231, 1-(4-(5-amino-2-(4-fluorobenzyl)thiazolo[5,4-c]pyrimidin-7-yl)piperazin-1-yl)-2-(4-bromophenoxy)ethanone] here?
A: =0.51 μg/ml

Q: What about the “hRV-9 EC50” value (hRV-9) of the same compound?
A: =0.55 μg/ml

Q: What about the “hRV-14 EC50” value (hRV-14) of the same compound?
A: =1.20 μg/ml

Q: And the “hRV-15 EC50” value (hRV-15)?
A: =1.38 μg/ml

Q: And the “hRV-39 EC50” value (hRV-39)?
A: =0.34 μg/ml

Q: And the “hRV-41 EC50” value (hRV-41)?
A: =0.89 μg/ml

Q: What about the “hRV-42 EC50” value (hRV-42) of the same compound?
A: =1.26 μg/ml

Q: What about the “hRV-45 EC50” value (hRV-45) of the same compound?
A: =2.22 μg/ml

Q: What about the “hRV-63 EC50” value (hRV-63) of the same compound?
A: =2.32 μg/ml

Q: And the “hRV-70 EC50” value (hRV-70)?
A: =4.60 μg/ml

Q: And the “hRV-72 EC50” value (hRV-72)?
A: =4.95 μg/ml

Q: And the “hRV-85 EC50” value (hRV-85)?
A: =2.21 μg/ml

Q: And the “hRV-86 EC50” value (hRV-86)?
A: =4.42 μg/ml

Q: And the CC50 (Hela Rh cells)?
A: >50.00 µg/mL

Q: With `Nc1nc2sc(N)nc2c(=O)[nH]1` [2,5-Diaminothiazolo[5,4-d]pyrimidin-7(6H)-one] as the compound, how does the “inhibitor of purine nucleoside phosphorylase” value [5] read?
A: weak inhibitor

Q: With `COCCCNc1nc(N)nc2sc(-c3ccc(F)cc3)nc12` [Example 32, 2-(4-fluorophenyl)-N-7-(3-methoxypropyl)thiazolo[5,4-d]pyrimidine-5,7-diamine] as the compound, how does the EC50 (HIV-1 strain IIIB; [10]) read?
A: > 349 µM

Q: What about the CC50 (MT-4 cells) of the same compound?
A: > 365 µM

Q: For `Nc1nc(N2CCN(C(=O)COc3ccc(Cl)cc3)CC2)c2nc(C3CC3)sc2n1` [Example 119, 5-amino-2-cyclopropyl-7-[4-(4-chlorophenoxyacetyl)piperazin-1-yl]-thiazolo[5,4-d]pyrimidine], which “HCV-1a Replicon Selectivity Index” value ([4]; CC50/EC50, genotype 1a replicon) is on record?
A: >87

Q: And the EC50 ([4]; Hepatitis C virus, 72 h, read-out: HCV-1a Replicon EC50 (μM))?
A: 0.5 µM

Q: And the EC50 (genotype 1b replicon; Hepatitis C virus)?
A: 0.341 ± 0.024 µM

Q: And the EC50 ([6]; Hepatitis C virus)?
A: 0.422 ± 0.104 µM

Q: And the EC50 ([7]; Hepatitis C virus, 72 h, read-out: Genotype 2a Virus (Lunet-CD81) EC50 (μM))?
A: > 50 µM

Q: What about the EC50 (poliovirus (PV type 1); HeLa) of the same compound?
A: 24.1 µg/mL (≈ 54.1 µM)

Q: What about the EC50 (poliovirus (PV type 1); Vero) of the same compound?
A: 0.34 µg/mL (≈ 0.764 µM)

Q: And the EC50 (poliovirus (PV type 2); HeLa)?
A: 1.21 µg/mL (≈ 2.72 µM)

Q: What about the EC50 (poliovirus (PV type 2); Vero) of the same compound?
A: 0.33 µg/mL (≈ 0.742 µM)

Q: And the EC50 (poliovirus (PV type 3); HeLa)?
A: > 50 µg/mL

Q: What about the EC50 (poliovirus (PV type 3); Vero) of the same compound?
A: 12.5 µg/mL (≈ 28 µM)

Q: What about the CC50 (in vitro [2]) of the same compound?
A: > 150 µg/mL

Q: What about the CC50 (in vitro [3]) of the same compound?
A: > 50 µg/mL

Q: What about the CC50 at 72 h [8] of the same compound?
A: > 50 µM

Q: And the CC50 at 72 h [9]?
A: > 44.4 µM

Q: Which EC50 (HIV-1 strain IIIB; Human immunodeficiency virus 1, IIIB, MT4, 120 h) does the source give for `CCOc1nc(N)nc2sc(-c3ccc(F)cc3)cc12` [Example 363, 4-ethoxy-6-(4-fluorophenyl)thieno[2,3-d]pyrimidin-2-amine] here?
A: ≥ 432 µM

Q: What about the EC50 (HIV-2 strain (ROD)) of the same compound?
A: ≥ 432 µM

Q: What about the melting point of the same compound?
A: 142 °C

Q: And the CC50 (in vitro [1])?
A: 432 µM

Q: With `CCCc1nc2c(N3CCN(C(=O)COc4ccc(Cl)cc4)CC3)nc(N)nc2[nH]1` [Example 397, 1-(4-(2-amino-8-propyl-9H-purin-64)piperazin-1-yl)-2-(4-chlorophenoxy)ethanone] as the compound, how does the EC50 [4, 11] read?
A: 1.1 µM

Q: What about the EC50 (genotype 1b replicon) of the same compound?
A: 0.14 ± 0.11 µM

Q: And the EC50 [6]?
A: 0.181 ± 0.108 µM

Q: What about the EC50 ([7]; J6/JFH-1 chimera, MOI of 1, 72 hours, NS3 readout, read-out: Genotype 2a Virus (Lunet-CD81) EC50) of the same compound?
A: 31.2 µM

Q: What about the CC50 (RLuc-1 cells) of the same compound?
A: > 44.4 µM
